≈ marks a conversion by molar mass, not a printed value. Where two headings read alike, the source gives them in different places.
Key:
[1] = tested on: TCF/LEF luciferase Reporter in DLD1 cells; experiment: TCF reporter assay (DLD1 TCF/LEF luciferase reporter, Bright-Glo); assay type: cell-based; details: read-out: DLD1 4% Abs IC50
Text: Those skilled in the art will appreciate that other suitable reagents may be utilized and various parameters may be adjusted.
DLD1 reporter cell line was generated by using TCF/LEF luciferase Reporter Lentivirus (BPS Bioscience Catalog #79787). Parental DLD1 cells (ATCC@ CCL-221) were transfected with the lentivirus and followed by 3-day puromycin selection. Single clone was selected for Reporter assay.
On Day 1, cultured cells in flasks that are no more than about 60-70% confluent were washed with PBS and typsinized in 3 mL/T75 until cells were free floating. Spin down cells for 5 minutes at 1100RPM. While cells spin, determine the number of plates (3 compounds per plate) needed. After spinning, aspirate the supernatant gently and add 10 mL media (RPMI+4% FBS), and re-suspend and mix the cells gently. Count the cells twice in the cell counter Countess and take average of both the counts, and determine how many cells are needed. After plating cells at 5000 cells/well, seal with aerseal film. 90 uL cells/well. Incubate at 37° C. overnight, tap gently to mix and don't stack plates.
On Day 2, compounds were added. Stock solution was 10 mM. Make the DMSO containing media by adding 36 uL DMSO to 10 mL of media. Make the dilution wells by transferring 100 uL DMSO+Media into rows B-F of a protein LoBind 96-well plate. Row G is empty. Add any extra DMSO+media to row H. Transfer 4 uL of stock solution to Row A. One compound per column. Add 196 uL media to Row A, no DMSO in the media. Concentration of Row A was 200 uM. Mix well and do a 6 pt, 1:2 serial dilution, mix ×10 per transfer and change tips before each transfer. Removed excess volume from final well (row F) and discard. Transfer 10 uL of the compound containing media to cells with a multichannel according to plate maps. Add 60 uL DMSO containing media to the DMSO wells. The edge wells were typically not used in the assay and could be ignored if needed or replaced with PBS, but there typically were liquids in the wells. Cover plates with breathable plate sealer and incubate overnight.
A 96-well plate may be utilized to prepare dilution series for up to 12 compounds, each with several concentrations (e.g., 200, 100, 50, 25, 12.5, 6.25 and 0 uM; can be utilized as 100× depending on final test concentrations).
0 uM is the DMSO control for the whole plate. Edge well filled with 90 uL cells+10 uL DMSO containing media.
On Day 3, luciferase levels were assessed using Bright-Glo (Promega). Equilibrate Bright-Glo to room temperature before addition. 7 mL of mixed Bright-Gbo per plate. Unused Bright-Glo could be store at −80° C. Reconstituted reagent can be stored for up to 1 month at −80° C., or after one freeze-thaw. When ready to read, remove plates from incubator and let sit at room temperature for 15 minutes. Typically stagger taking out plates if reading multiple plates before adding the Bright-Glo. Add 90 uL/well Bright-Glo and shake gently for 3 minutes. Read luminescence on GloMax immediately using ‘BrightGlo’ programs.
Cellular activity was assessed using CTG. Equilibrate CTG reagents to room temperature. Equilibrate plates to room temp, e.g. 15 min. Use same time length for all plates. Add CTG reagent, 25 uL if using undiluted, or 90 uL if diluted 1 to 4. Shake for 2 min to induce cell lysis. Allow plate to incubate at RT for 10 min to stabilize lumine sent signal. Read luminesence using program ‘CellTiter-Glo’. Use Prism to find the Absolute IC50 (AbsIC50=X[50]) of each compound.

[2] = target: T1, beta-catenin/TCF4 engagement (Homo sapiens, UniProt P35222); experiment: Nano-BRET target engagement assay (B-cat-Halo & TCF4-Luc in HEK293 cells); assay type: cell-based; details: read-out: NanoBRET Abs IC50
T1 construct: expressed in transfected cells; host or cells: HEK293
T1 sequence (P35222 1-781): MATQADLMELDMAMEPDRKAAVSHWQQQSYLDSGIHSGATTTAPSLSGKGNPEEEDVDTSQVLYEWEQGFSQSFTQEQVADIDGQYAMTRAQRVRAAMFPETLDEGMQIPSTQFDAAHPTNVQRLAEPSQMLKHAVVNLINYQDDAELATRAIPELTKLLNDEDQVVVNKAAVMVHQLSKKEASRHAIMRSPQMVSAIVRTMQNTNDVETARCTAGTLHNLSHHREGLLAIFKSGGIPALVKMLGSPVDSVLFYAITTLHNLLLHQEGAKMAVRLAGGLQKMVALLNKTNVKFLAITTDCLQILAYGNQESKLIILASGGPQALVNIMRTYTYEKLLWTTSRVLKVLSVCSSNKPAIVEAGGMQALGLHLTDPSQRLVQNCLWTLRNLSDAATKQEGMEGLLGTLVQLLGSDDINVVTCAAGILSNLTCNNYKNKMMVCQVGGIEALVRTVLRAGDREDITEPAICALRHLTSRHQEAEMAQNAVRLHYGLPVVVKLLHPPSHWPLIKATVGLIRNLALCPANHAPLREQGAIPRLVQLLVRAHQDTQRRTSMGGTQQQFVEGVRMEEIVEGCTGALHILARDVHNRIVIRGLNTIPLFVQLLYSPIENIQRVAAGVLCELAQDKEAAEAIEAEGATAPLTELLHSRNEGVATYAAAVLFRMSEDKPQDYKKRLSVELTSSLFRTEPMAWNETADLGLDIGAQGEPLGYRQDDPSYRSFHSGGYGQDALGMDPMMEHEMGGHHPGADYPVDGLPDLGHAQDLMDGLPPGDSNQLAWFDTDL

[3] = target: T2, full-length beta-Catenin (Uniprot ID P35222) (Homo sapiens, UniProt P35222); experiment: Fluorescence polarization IC50 (beta-catenin / 5FAM-TCF4 10-53 competition); assay type: binding
T2 construct: 10 nM full-length beta-Catenin (Uniprot ID P35222)
T2 sequence (P35222 1-781): T1 sequence (P35222 1-781)

CHI Log D procedure = assay type: physicochemical; details: pH 7.4
Solubility in PBS = assay type: physicochemical
Summary of the method: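 Read-out is the HPLC peak area of the supernatant from ultracentrifuged PBS solution, scaled against a 50 μM peptide DMSO injection; value reported as [(PBS area)/(DMSO area)]*50 uM.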

[4] = fluorescence polarization, read-out: beta-Catenin FP IC50
[5] = DLD1 reporter, 4%, absolute IC50

IC50 [3, 4] [nM]	IC50 ([2]; absolute IC50) [nM]	IC50 [1, 5] [nM]	Structure (SMILES)	also measured
18			CC(=O)N1CCC[C@]12CC=CCCCC1(CCCC=CCCCOC(=O)N3CC[C@@](C(=O)N[C@@H](Cc4ccsc4)C(=O)N[C@@H](Cc4csc5ccccc45)C(=O)N[C@@H](C)C(N)=O)(C3)NC(=O)[C@H](CC(C)C)NC(=O)[C@H](Cc3ccccc3)NC(=O)[C@H](C)NC(=O)C(C)(C)NC(=O)[C@H](Cc3cccc(C(=O)O)c3)NC(=O)[C@H](CC(=O)O)NC1=O)NC(=O)[C@H](CC(C)(C)C)NC(=O)[C@H](CC(=O)O)NC2=O (stereo partly drawn) [I-1920, Ac-PL3-Asp-Npg-B5-Asp-3COOHF-Aib-Ala-Phe-Leu-PyrS2-3Thi-BztA-Ala-NH2]	IC50 ([1]; DLD1 4%): 1200 nM; IC50 [2]: 3100 nM
12	4300		CC(=O)N1CCC[C@]12CC=CCCCC1(CCCC=CCCCOC(=O)N3CC[C@@](C(=O)N[C@@H](Cc4ccsc4)C(=O)N[C@@H](Cc4csc5ccccc45)C(=O)N[C@@H](CCC(N)=O)C(N)=O)(C3)NC(=O)[C@H](CC(C)C)NC(=O)[C@H](Cc3ccccc3)NC(=O)[C@H](C)NC(=O)[C@H](C)NC(=O)[C@H](CN(CCCC(F)(F)F)CC(=O)O)NC(=O)[C@H](CC(=O)O)NC1=O)NC(=O)[C@H](CC(C)(C)C)NC(=O)[C@H](CC(=O)O)NC2=O (stereo partly drawn) [I-1629, Ac-PL3-Asp-Npg-B5-Asp-[Tfb]GA-Ala-Ala-Phe-Leu-PyrS2-3Thi-BztA-Gln-NH2]	IC50 ([1]; DLD1 reporter assay, 4%, absolute IC50): 2700 nM
37	4000	7600	CC(=O)N1CCC[C@]12CC=CCCCC1(CCCC=CCCCOC(=O)N3CC[C@@](C(=O)N[C@@H](Cc4ccccc4C(F)(F)F)C(=O)N[C@@H](Cc4csc5ccccc45)C(=O)N[C@@H](CCC(N)=O)C(=O)N[C@@H](CC(C)C)C(=O)N[C@@H](CCC(N)=O)C(N)=O)(C3)NC(=O)[C@H](CC(C)C)NC(=O)[C@H](Cc3ccccc3)NC(=O)[C@H](C)NC(=O)[C@H](C)NC(=O)[C@H](Cc3cccc(C(=O)O)c3)NC(=O)[C@H](CC(=O)O)NC1=O)NC(=O)[C@H](CC(C)(C)C)NC(=O)[C@H](CC(=O)O)NC2=O (stereo partly drawn) [I-2382, Ac-PL3-Asp-Npg-B5-Asp-3COOHF-Ala-Ala-Phe-Leu-PyrS2-2F3MeF-BztA-Gln-Leu-Gln-NH2]	
904			CC(C)C[C@H](NC(=O)[C@]12CCN(C1)C(=O)OCCCCCCCCC1(CCCCCCc3ccccc3C(=O)N3CCC[C@@]3(C)C(=O)N[C@@H](CC(=O)O)C(=O)N1)C(=O)N[C@@H](C)C(=O)N[C@@H](CC(=O)O)C(=O)N[C@@H](Cc1cccc(C(=O)O)c1)C(=O)N[C@@H](C)C(=O)N[C@@H](C)C(=O)N[C@@H](Cc1ccccc1)C(=O)N2)C(=O)N[C@@H](Cc1ccsc1)C(=O)N[C@@H](Cc1csc2ccccc12)C(=O)N[C@@H](CCC(N)=O)C(N)=O (stereo partly drawn) [I-2607, BzAm2Allyl-MePro-Asp-B5-Ala-Asp-3COOHF-Ala-Ala-Phe-PyrS2-Leu-3Thi-BztA-Gln-NH2]	IC50 ([1]; DLD1 reporter, 4%): > 20000 nM
734			CC(C)C[C@H](NC(=O)[C@]12CCN(C1)C(=O)OCCCCCCCCC1(CCCCCCc3ccccc3C(=O)N3CCC[C@@]3(C)C(=O)N[C@@H](CC(=O)O)C(=O)N1)C(=O)N[C@@H](C)C(=O)N[C@@H](CC(=O)O)C(=O)N[C@@H](CC(=O)O)C(=O)N[C@@H](C)C(=O)N[C@@H](C)C(=O)N[C@@H](Cc1ccccc1)C(=O)N2)C(=O)N[C@@H](Cc1ccsc1)C(=O)N[C@@H](Cc1csc2ccccc12)C(=O)N[C@@H](CCC(N)=O)C(N)=O (stereo partly drawn) [I-2606, BzAm2Allyl-MePro-Asp-B5-Ala-Asp-Asp-Ala-Ala-Phe-PyrS2-Leu-3Thi-BztA-Gln-NH2]	IC50 ([1]; DLD1 reporter, 4%): > 20000 nM
133		> 20000	CC(=O)N1CCC[C@]12CC=CCCCC1(CCCC=CCCCOC(=O)N3CC[C@@](C(=O)N[C@@H](Cc4ccsc4)C(=O)N[C@@H](Cc4csc5ccccc45)C(=O)N[C@@H](CCCNC(=N)N)C(N)=O)(C3)NC(=O)[C@H](CC(N)=O)NC(=O)[C@H](Cc3ccccc3)NC(=O)[C@H](C)NC(=O)C(C)(C)NC(=O)[C@H]([C@@H](C)O)NC(=O)[C@H](CC(N)=O)NC1=O)NC(=O)[C@H](CC(C)(C)C)NC(=O)[C@H](CC(=O)O)NC2=O (stereo partly drawn) [I-2413, Ac-PL3-Asp-Npg-B5-Asn-Thr-Aib-Ala-Phe-Asn-PyrS2-3Thi-BztA-Arg-NH2]	
34	18100		CC[C@H](C)[C@@H]1NC(=O)[C@H](CC(=O)O)NC(=O)[C@]2(CC=CCCCC3(CCCC=CCCCCCC[C@@](C)(C(=O)N[C@@H](Cc4ccsc4)C(=O)N[C@@H](Cc4csc5ccccc45)C(=O)N[C@@H](CCC(N)=O)C(N)=O)NC(=O)[C@H](CC(N)=O)NC(=O)[C@H](Cc4ccccc4)NC(=O)[C@H](C)NC(=O)[C@H](C)NC(=O)[C@H](CN(CC(=O)O)CC(F)(F)F)NC(=O)[C@H](CC(=O)O)NC3=O)NC1=O)CCCN2C(C)=O (stereo partly drawn) [I-701, Ac-PL3-Asp-Ile-B5-Asp-TfeGA-Ala-Ala-Phe-Asn-S8-3Thi-BztA-Gln-NH2]	CHI Log D (CHI Log D procedure): 2.631; IC50 ([3]; read-out: FP EC50): 34 nM; Solubility (Solubility in PBS): 46 µM (≈ 90.7 µg/mL)

Structure (SMILES)	IC50 [3, 4] [nM]	IC50 ([2]; absolute IC50) [nM]	IC50 [1, 5] [nM]	also measured
CC(=O)N1CCC[C@]12CC=CCCCC1(CCCC=CCCCOC(=O)N3CC[C@@](C(=O)N[C@@H](Cc4ccccc4C(F)(F)F)C(=O)N[C@@H](Cc4csc5ccccc45)C(=O)N[C@@H](CCC(N)=O)C(N)=O)(C3)NC(=O)[C@H](CC(C)C)NC(=O)[C@H](Cc3ccccc3)NC(=O)[C@H](C)NC(=O)[C@H](C)NC(=O)[C@H](Cc3cccc(C(=O)O)c3)NC(=O)[C@H](CC(=O)O)NC1=O)NC(=O)[C@H](CC(C)(C)C)NC(=O)[C@H](CC(=O)O)NC2=O (stereo partly drawn) [I-1466, Ac-PL3-Asp-Npg-B5-Asp-3COOHF-Ala-Ala-Phe-Leu-PyrS2-2F3MeF-BztA-Gln-NH2]			700	IC50 ([3]; read-out: beta-Catenin FP IC50): 10 nM
